Holding throughout (assay type): cell-based, human
Experiment [1] concerns indoleamine 2,3-dioxygenase (IDO). The experiment is described as follows: Intracellular indoleamine 2,3-dioxygenase in mature dendritic cells (flow cytometry). As to conditions: mDC(BiP). On the procedure:
Purified monocytes (>85% monocytes)(1.5.10^6/flask)(Corning Costar, High Wycombe, UK) were incubated in 5 ml of tissue culture medium (TCM)(RPMI 1640 medium (Sigma, Poole, UK) supplemented with 10% heat-inactivated foetal calf serum (FCS)(Life Technologies, Paisley, UK). iDC were generated using granulocyte macrophage—colony stimulating factor (GM-CSF) (1000 U/ml)(Novartis Research Institute, Vienna, Austria) and IL-4 (500 U/ml) (R&D Systems, Oxford, UK). Monocytes were cultured for 3 or 7 days with cytokines, either alone or in the presence of rhuBiP (20 μg/ml). Mature DC were generated by addition of 500 ng/ml lipopolysaccharide (LPS) for the final 2 days of culture.
Intracellular staining was carried out with fixed cells incubated with 1% paraformaldehyde in IF buffer for 5 minutes at room temperature. The cells were washed twice with IF buffer containing 0.3% saponin for permeabilization. […] Antibodies were added at the pre-determined optimal concentration for 20 mins and then the cells were washed twice with IF buffer and analysed. […] Cells were analysed on a FACScan cytometer using Cellquest software (Becton Dickinson, Oxford, UK). […]
Immunofluorescent staining was performed, as described previously (39), on DC harvested at day 7, T cells after 4 days co-culture with DC. […] Cells were analysed on a FACScan/FACScalibur cytometers using Cellquest software (BD, Oxford, UK).

A further experiment concerns IL-8. The experiment in a line: IL-8 in supernatants of PBMC from rheumatoid arthritis patients (MSD multicytokine array). The conditions noted are these: PBMC of RA patients on methotrexate, BiP 20 μg/ml, 96 h, 16 paired samples, p=0.0001. As for the experimental part: Peripheral blood mononuclear cells (PBMC) were separated from heparinised blood taken from patients with rheumatoid arthritis being treated with methotrexate. PBMC were either left unstimulated or stimulated with BiP (20 μg/ml). Supernatants were taken at 96 h, aliquoted and stored at −80° C. until required.
Supernatants from unstimulated or BiP stimulated cultures were analysed in a multicytokine array (MSD). The results from 16 paired samples are shown as median and 95 percent confidence limits.

For a further experiment, the system named is allogeneic T cells. The experiment in a line: Allogeneic proliferative response to early BiP treated DC (tritiated thymidine uptake). The conditions noted are these: DC differentiated with BiP 20 μg/ml. As for the experimental part: Allogeneic responses by T cells in culture with irradiated (3,000 rads) early DC (eDC), after only 3d in culture with GM-CSF and IL-4 in the presence or absence of BiP (20 μg/ml) at a ratio of 10:1 PBMC:DC (105:10^4 cells/well). The results are shown as an allogeneic proliferative response (A) following addition of neutralizing anti-IL-10 ( 1/100 dilution) antibody and (B) the pre-treatment (2 h) of monocytes (MO) with p38 inhibitor, SB203580 (SB)(10 μM) or the ERK1/2 inhibitor, PD 98059 (PD)(10 μM), prior to the addition of GM-CSF and IL-4 to the cultures. The proliferation of PBMC to early DC following (C) the addition of BiP 24 h post addition of GM-CSF and IL-4. Proliferation was measured by uptake of tritiated thymidine and recorded as counts per minute (cpm). ELISA was used to detect IL-10 (D) in the culture supernatants and (E) by 7d cultured iDC/iDC(BiP) and fully matured mDC/mDC(BiP) differentiated as described in following 7d culture in GM-CSF and IL-4 with LPS (500 ng/ml) added for the final 2d.
To neutralize IL-10 within the cultures anti-IL-10 antibody (ATCC, Rockville, USA) was added at day 0 (5 μg/ml) to GM-CSF and IL-4 treated cultures in the presence and absence of BiP (20 μg/ml). Two specific cell-permeable inhibitors of the MAPK intracellular signalling pathways were used. SB203580 (SB)(10 μM)((Calbiochem, Darmstadt, Germany) inhibits p38 MAPK, and PD98059 (PD) (10 μM)(Calbiochem), an inhibitor of MAPK extracellular signal regulated kinase (ERK), were tested. MO were pre-treated with the inhibitors for 2 h before adding GM-CSF and IL-4 in the presence or absence of BiP.

A further experiment concerns T cells. The experiment is described as follows: Regulatory markers on T cells co-cultured with BiP-treated dendritic cells. On the procedure:
FIG. 11: Co-culture of T cells with BiP-treated dendritic cells (DC) upregulates regulatory markers. […] Mean ±standard deviation of three experiments is shown.
Intracellular staining was carried out with fixed cells incubated with 1% paraformaldehyde in IF buffer for 5 minutes at room temperature. The cells were washed twice with IF buffer containing 0.3% saponin for permeabilization. 0.3% saponin was then present in all IF buffer used thereafter. CTLA-4/CD152 (BD), FoxP3 (eBioscience) and indolamine 2,3-dioxygenase (Santa Cruz) and cytokines required intracellular staining. Antibodies were added at the pre-determined optimal concentration for 20 mins and then the cells were washed twice with IF buffer and analysed. Isotype controls, IgG1 and IgG2a (Becton Dickinson, Oxford, UK) were used in parallel. Cells were analysed on a FACScan cytometer using Cellquest software (Becton Dickinson, Oxford, UK).
T cells were purified from peripheral blood mononuclear cells and set up in culture with either allogeneic or autologous dendritic cells, which had been washed and irradiated, at a ratio of 10 T cells:1 DC. The cells were co-cultured in a 24 well plate in 1 ml/well, in RPMI 1640 supplemented with 10% foetal calf serum, for 4 days then the T cells were removed and washed before being investigated for the presence of T regulatory cells (see below)
Immunofluorescent staining was performed, as described previously (39), on DC harvested at day 7, T cells after 4 days co-culture with DC. Saturating concentrations of fluorescein isothiocyanate (FITC)-, phycoerythrin (PE) or peridium chlorophyll (Per-CP)-conjugated mAb were added recognizing CD14, CD86, CD80, HLA-DR, CD11c, CD1a, CD83, CD85j, IL-10 receptor; purity of the negatively selected MO and T cells was checked using CD3, CD4, CD14, CD20 and CD57 (all from Becton Dickinson/PharMingen (BD), Oxford, UK). Intracellular staining was carried out following fixation of cells with 1% paraformaldehyde for 5 minutes. Cells were then washed with immunofluorescence buffer (PBS/0.1% BSA/0.05% azide) containing 0.3% saponin. 0.3% saponin was then present in all solutions thereafter. CD152/CTLA-4 (BD, Oxford UK) and IDO (Santa Cruz, Autogen Bioclear, UK) were intracellular stains. Isotype controls, IgG1 and IgG2a (BD, Oxford, UK) were used in parallel. Cells were analysed on a FACScan/FACScalibur cytometers using Cellquest software (BD, Oxford, UK).

As for “BiP: 78 kD endoplasmic reticulum chaperone protein as disclosed in WO 00/21995; recombinant human protein”, the “cells containing intracellular IDO” value in experiment [1] (mean ±standard deviation, n=9 (Example 10)) is recorded as 14.1±7.1%; in experiment [1] (n=4 (Example 1)) it was 17.6±8.6%. Also, the IL-8 production result in the experiment on IL-8 is on record as “significantly less IL-8”. For the same substance, in the experiment with allogeneic T cells, the “proliferation of allogeneic T cells stimulated by iDC(BiP) or mDC(BiP)” value is reported as “significantly reduced proliferation”. For the same substance, the “intracellular CTLA-4 in T cells in contact with mDC(BiP)” value with T cells (FIG. 11B) was “significant upregulation of intracellular CTLA-4”. Moreover, the “T cell surface expression for CD4CD25hiCD27hi” value in the experiment with T cells (after 4d contact with mDC(BiP), n=5) is given as 2.5±0.2%. In addition, in the experiment with T cells (after contact with BiP treated DC, n=4), the “intracellular CTLA-4/CD152 in T cells” value was 31±12. In the experiment on T cells (after contact with mDC(BiP), n=4), the “cell surface CCR4 on T cells” value came out at 17.3±2.0%.
